Molecular target: T1, human RNR (histidine tagged human M1 and human M2 proteins) (Homo sapiens, UniProt P23921)
T1 construct: made in house; host or cells: Escherichia coli
T1 sequence (P23921 1-792): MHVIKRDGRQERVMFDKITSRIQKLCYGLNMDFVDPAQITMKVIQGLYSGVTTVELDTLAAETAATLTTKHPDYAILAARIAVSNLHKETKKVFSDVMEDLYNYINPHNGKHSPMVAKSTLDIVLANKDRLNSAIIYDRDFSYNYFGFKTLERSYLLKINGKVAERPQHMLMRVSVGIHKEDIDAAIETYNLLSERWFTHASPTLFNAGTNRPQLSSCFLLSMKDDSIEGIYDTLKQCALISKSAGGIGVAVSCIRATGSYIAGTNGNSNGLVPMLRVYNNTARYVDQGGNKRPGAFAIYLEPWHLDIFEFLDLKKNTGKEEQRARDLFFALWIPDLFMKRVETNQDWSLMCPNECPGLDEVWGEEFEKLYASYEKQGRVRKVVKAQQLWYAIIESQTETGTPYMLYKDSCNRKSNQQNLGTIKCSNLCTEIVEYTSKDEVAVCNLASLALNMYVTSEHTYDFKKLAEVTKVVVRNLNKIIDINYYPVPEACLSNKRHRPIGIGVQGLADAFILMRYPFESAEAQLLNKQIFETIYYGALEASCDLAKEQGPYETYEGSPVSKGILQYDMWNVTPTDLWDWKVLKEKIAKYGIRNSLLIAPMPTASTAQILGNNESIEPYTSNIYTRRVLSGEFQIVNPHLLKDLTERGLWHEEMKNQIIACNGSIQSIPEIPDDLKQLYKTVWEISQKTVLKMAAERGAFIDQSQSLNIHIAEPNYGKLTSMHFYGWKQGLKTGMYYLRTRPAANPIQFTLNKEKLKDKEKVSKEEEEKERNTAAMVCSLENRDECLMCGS
Assay: Human RNR inhibition effect (dCDP formation from CDP)
Format: biochemical
Settings: 10 μM CDP, 37° C. for 30 minutes, read-out: RNR inhibitory activity IC50
How it was run: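 His-tagged human M1 (isoform 1) and N-terminal 59-aa-truncated M2 (isoform 2), E. coli-expressed, Ni-purified, preincubated 20 min with compound (1% DMSO). Reaction with 10 μM CDP, 2 mM ATP, 0.24 mM NADPH, 6 mM DTT, 4 mM Mg acetate, 100 mM KCl, 50 mM HEPES pH 7.2, 30 min at 37° C. dCDP formed quantified by reverse-phase HPLC after heat stop.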

Compared with `CC1CCc2cccc(C(C)[C@H](NS(=O)(=O)c3ccc(Br)cn3)c3n[nH]c(=O)o3)c21` (stereo partly drawn) [Example 48, 5-bromo-N-((1S)-2-(3-methyl-2,3-dihydro-1H-inden-4-yl)-1-(5-oxo-4,5-dihydro-1,3,4-oxadiazol-2-yl)propyl)pyridine-2-sulfonamide], `Cc1cccc([C@@H](C)[C@H](NS(=O)(=O)c2ccc(Cl)cc2C(N)=O)c2n[nH]c(=O)o2)c1C` [Example 3, 5-chloro-2-(N-((1S,2R)-2-(2,3-dimethylphenyl)-1-(5-oxo-4,5-dihydro-1,3,4-oxadiazol-2-yl)propyl)sulfamoyl)benzamide] is 2-fold lower in IC50: 0.6 µM for the first, 0.3 µM for the second. The second is the more potent here.

`COc1cc(Cl)ccc1S(=O)(=O)N[C@H](c1n[nH]c(=O)o1)[C@H](C)c1cccc(C)c1C(C)C` [Example 85, 4-chloro-N-((1S,2R)-2-(2-isopropyl-3-methylphenyl)-1-(5-oxo-4,5-dihydro-1,3,4-oxadiazol-2-yl)propyl)-2-methoxybenzenesulfonamide] and `C=C(c1c(F)ccc(C)c1C)[C@H](NS(=O)(=O)c1ccc(Cl)cc1OC)c1n[nH]c(=O)o1` [Example 185, (S)-4-chloro-N-(2-(6-fluoro-2,3-dimethylphenyl)-1-(5-oxo-4,5-dihydro-1,3,4-oxadiazol-2-yl)allyl)-2-methoxybenzensulfonamide] are within 1.5-fold of each other in IC50: 0.84 µM for the first, 0.6 µM for the second.

`Cc1ccc(S(=O)(=O)N[C@H](c2n[nH]c(=O)o2)[C@H](C)c2c(F)ccc3ccccc23)c(C(N)=O)c1` [Example 12, 2-(N-((1S,2R)-2-(2-Fluoronaphthalen-1-yl)-1-(5-oxo-4,5-dihydro-1,3,4-oxadiazol-2-yl)propyl)sulfamoyl)-5-methylbenzamide] and `Cc1c(Br)ccc(F)c1[C@@H](C)[C@H](NS(=O)(=O)c1ccc(C(F)(F)F)cc1C(N)=O)c1n[nH]c(=O)o1` [Example 42, 2-(N-((1S,2R)-2-(3-bromo-6-fluoro-2-methylphenyl)-1-(5-oxo-4,5-dihydro-1,3,4-oxadiazol-2-yl)propyl)sulfamoyl)-5-(trifluoromethyl)benzamide] are within 1.5-fold of each other in IC50: 0.17 µM for the first, 0.2 µM for the second.

Compared with `COc1cc(Cl)ccc1S(=O)(=O)N[C@H](c1n[nH]c(=O)o1)[C@H](C)c1c(F)ccc(-c2cncc(C(=O)N3CCOCC3)c2)c1C` [Example 323, 4-chloro-N-((1S,2R)-2-(6-fluoro-2-methyl-3-(5-(morpholine-4-carbonyl)pyridin-3-yl)phenyl)-1-(5-oxo-4,5-dihydro-1,3,4-oxadiazol-2-yl)propyl)-2-methoxybenzenesulfonamide], `COc1cc(Cl)ccc1S(=O)(=O)N[C@H](c1n[nH]c(=O)o1)[C@H](C)c1c(F)ccc(-c2cnn(C3CCC3)c2)c1C` [Example 312, 4-chloro-N-((1S,2R)-2-(3-(1-cyclobutyl-1H-pyrazol-4-yl)-6-fluoro-2-methylphenyl)-1-(5-oxo-4,5-dihydro-1,3,4-oxadiazol-2-yl)propyl)-2-methoxybenzenesulfonamide] is 1.9-fold lower in IC50: 0.42 µM for the first, 0.22 µM for the second. The second is the more potent here.

Going from `Cc1ccc(F)c([C@@H](C)[C@H](NS(=O)(=O)c2ccc(Br)cc2C(N)=O)c2n[nH]c(=S)o2)c1C` [Example 332, 5-bromo-2-(N-((1S,2R)-2-(6-fluoro-2,3-dimethylphenyl)-1-(5-thioxo-4,5-dihydro-1,3,4-oxadiazol-2-yl)propyl)sulfamoyl)benzamide] to `Cc1ccc(F)c([C@@H](C)[C@H](NS(=O)(=O)c2ccc(Cl)cc2C(=O)N2CCC2)c2n[nH]c(=O)o2)c1C` [Example 247, 2-(azetidine-1-carbonyl)-4-chloro-N-((1S,2R)-2-(6-fluoro-2,3-dimethylphenyl)-1-(5-oxo-4,5-dihydro-1,3,4-oxadiazol-2-yl)propyl)benzenesulfonamide], the IC50 rises from 0.13 µM to 0.41 µM (3.2-fold).

`Cc1ccc(F)c([C@@H](C)[C@H](NS(=O)(=O)c2ccc(Cl)c3c2OCCC3N)c2n[nH]c(=O)o2)c1C` (stereo partly drawn) [Example 278, 4-amino-5-chloro-N-((1S,2R)-2-(6-fluoro-2,3-dimethylphenyl)-1-(5-oxo-4,5-dihydro-1,3,4-oxadiazol-2-yl)propyl)chroman-8-sulfonamide] and `CC(=O)NC1CCOc2c(S(=O)(=O)N[C@H](c3n[nH]c(=O)o3)[C@H](C)c3c(F)ccc(C)c3C)ccc(Cl)c21` (stereo partly drawn) [Example 157, N-(5-chloro-8-(N-((1S,2R)-2-(6-fluoro-2,3-dimethylphenyl)-1-(5-oxo-4,5-dihydro-1,3,4-oxadiazol-2-yl)propyl)sulfamoyl)chroman-4-yl)acetamide] are within 1.5-fold of each other in IC50: 0.13 µM for the first, 0.1 µM for the second.

`Cc1ccc(F)c([C@@H](C)[C@H](NS(=O)(=O)c2ccc3c(c2)OCCO3)c2n[nH]c(=O)o2)c1C` [Example 173, N-((1S,2R)-2-(6-fluoro-2,3-dimethylphenyl)-1-(5-oxo-4,5-dihydro-1,3,4-oxadiazol-2-yl)propyl)-2,3-dihydrobenzo[b][1,4]dioxin-6-sulfonamide] and `Cc1ccc(F)c([C@@H](C)[C@H](NS(=O)(=O)c2cc3c(cc2C(N)=O)OCCO3)c2n[nH]c(=O)o2)c1C` [Example 261, 7-(N-((1S,2R)-2-(6-fluoro-2,3-dimethylphenyl)-1-(5-oxo-4,5-dihydro-1,3,4-oxadiazol-2-yl)propyl)sulfamoyl)-2,3-dihydrobenzo[b][1,4]dioxin-6-carboxamide] are within 1.5-fold of each other in IC50: 0.13 µM for the first, 0.09 µM for the second.

First: [2H]C([2H])([2H])C1(O)CCOc2c(S(=O)(=O)N[C@H](c3n[nH]c(=O)o3)[C@H](C)c3c(F)ccc(Cl)c3C)ccc(Cl)c21 (single isomer, unassigned) [Example 228B]
Second: Cc1c(Br)ccc(F)c1[C@@H](C)[C@H](NS(=O)(=O)c1ccc(Cl)c2c1OCCC2(C)N)c1n[nH]c(=O)o1 (stereo partly drawn) [Example 329, 4-amino-N-((1S,2R)-2-(3-bromo-6-fluoro-2-methylphenyl)-1-(5-oxo-4,5-dihydro-1,3,4-oxadiazol-2-yl)propyl)-5-chloro-4-methyl-chroman-8-sulfonamide]
The IC50 of the first is 2.3-fold higher: 0.14 µM for the first, 0.06 µM for the second. The second is the more potent here.

Going from `COc1c(S(=O)(=O)N[C@H](c2n[nH]c(=O)o2)[C@H](C)c2c(F)ccc(C)c2C)ccc(Cl)c1C(C)(C)OC(C)=O` [Example 108, 2-(6-chloro-3-(N-((1S,2R)-2-(6-fluoro-2,3-dimethylphenyl)-1-(5-oxo-4,5-dihydro-1,3,4-oxadiazol-2-yl)propyl)sulfamoyl)-2-methoxyphenyl)propan-2-ylacetate] to `COC(=O)c1c(F)ccc(S(=O)(=O)N[C@H](c2n[nH]c(=O)o2)[C@H](C)c2c(F)ccc(C)c2C)c1F` [Example 178, methyl 2,6-difluoro-3-(N-((1S,2R)-2-(6-fluoro-2,3-dimethylphenyl)-1-(5-oxo-4,5-dihydro-1,3,4-oxadiazol-2-yl)propyl)sulfamoyl)benzoate], the IC50 falls from 0.43 µM to 0.17 µM (2.5-fold).

First: Cc1ccc(F)c([C@@H](C)[C@H](NS(=O)(=O)c2ccc(Cl)c(C(=O)N3CCC4(CC3)COC4)n2)c2n[nH]c(=O)o2)c1C [Example 156, 5-chloro-N-((1S,2R)-2-(6-fluoro-2,3-dimethylphenyl)-1-(5-oxo-4,5-dihydro-1,3,4-oxadiazol-2-yl)propyl)-6-(2-oxa-7-azaspiro[3.5]nonane-7-carbonyl)pyridine-2-sulfonamide]
Second: Cc1ccc(F)c([C@@H](C)[C@H](NS(=O)(=O)c2ccc(Cl)c3c2OCC(=O)N3CCO)c2n[nH]c(=O)o2)c1C [Example 273, 5-chloro-N-((1S,2R)-2-(6-fluoro-2,3-dimethylphenyl)-1-(5-oxo-4,5-dihydro-1,3,4-oxadiazol-2-yl)propyl)-4-(2-hydroxyethyl)-3-oxo-3,4-dihydro-2H-benzo[b][1,4]oxazine-8-sulfonamide]
The IC50 of the first is 1.6-fold lower: 0.08 µM for the first, 0.13 µM for the second. The first is the more potent here.

Compared with `Cc1ccc(F)c([C@@H](C)[C@H](NS(=O)(=O)c2ccc([N+](=O)[O-])cc2)c2n[nH]c(=O)o2)c1C` [Example 340, N-((1S,2R)-(6-fluoro-2,3-dimethylphenyl)-1-(5-oxo-4,5-dihydro-1,3,4-oxadiazol-2-yl)propyl)-4-nitrobenzenesulfonamide], `Cc1ccc(F)c([C@@H](C)[C@H](NS(=O)(=O)c2ccc(C#N)cc2)c2n[nH]c(=O)o2)c1C` [Example 341, 4-cyano-N-((1S,2R)-(6-fluoro-2,3-dimethylphenyl)-1-(5-oxo-4,5-dihydro-1,3,4-oxadiazol-2-yl)propyl)benzenesulfonamide] is 1.5-fold higher in IC50: 0.27 µM for the first, 0.41 µM for the second.

`Cc1ccc(F)c([C@@H](C)[C@H](NS(=O)(=O)c2cc(C(=O)N(C)C)c(Cl)cc2C(N)=O)c2n[nH]c(=O)o2)c1C` [Example 39, 2-chloro-5-(N-((1S,2R)-2-(6-fluoro-2,3-dimethylphenyl)-1-(5-oxo-4,5-dihydro-1,3,4-oxadiazol-2-yl)propyl)sulfamoyl)-N1,N1-dimethyl terephthalamide] and `Cc1c(Br)ccc(F)c1[C@@H](C)[C@H](NS(=O)(=O)c1ccc(F)c2c1OCCC2(C)O)c1n[nH]c(=O)o1` (single isomer, unassigned) [Example 227A] are within 1.5-fold of each other in IC50: 0.04 µM for the first, 0.05 µM for the second.

Source: patent US20200405697A1, “Antitumor Agent” (Taiho Pharmaceutical Co., Ltd, priority 2017, published 2020)
